Patent US7026505B2, “Method of treating tinnitus” (Warner-Lambert Company, priority 2002, dated 2006)
Structures can show the parent of a compound that is named as a salt.

Compound | melting point
CS(=O)(=O)NCCC1(CN)CCCCC1.Cl | 196 to 199 °C
CC(C)CC(CN)Cc1noc(=S)[nH]1.Cl (stereo not shown) | 183 to 185 °C
Cl.NCC1(Cc2noc(=S)[nH]2)CCCCC1 | 210 to 212 °C
CCCC(C(C)C)C(CN)CC(=O)O (stereo not shown) (as salt: HCl) | 160 to 170 °C
